Measurements as given in patent US20220339187A1, “ANTIMICROBIAL PEPTIDE-SELENIUM NANOPARTICLES” (The University of Melbourne, priority 2019, published 2022).

Experiments:
[1] = test system: methicillin-sensitive S. aureus ATCC 29213; assay: Resistance development test; format: cell-based, Staphylococcus aureus; conditions: S. aureus cultured at MBC50 concentration
Description: (§1) First, one S. aureus or E. coli colony from an agar plate was inoculated into 20 mL MHB and cultured overnight at 37° C. The bacterial suspensions were diluted to 2.5×10^6 bacteria/mL. […] After every 48 h, CFU assays were performed on these bacteria, and the MBCs were calculated. The change in MBCs over the generations was plotted.

E. coli ATCC 25922 [2] = assay: Resistance development test; format: cell-based, Escherichia coli; conditions: E. coli cultured at MBC50 concentration; 312 generations tested
Description: as §1

E. coli ATCC 25922 [3] = assay: Membrane potential change test (BacLight, DiOC2(3)); format: cell-based, Escherichia coli; conditions: 6.25 or 12.5 μg/ml (CCCP 5 μM)
Description: Membrane potential change was measured using a BacLight Bacterial Membrane Potential Kit (Invitrogen). The bacterial strain methicillin-sensitive S. aureus (MSSA) ATCC 29213, E. faecalis ATCC 29212, E. coli ATCC 25922 were cultured in MHB at 37° C. 50 μL of different concentrations of Se NPs, Se NP-ε-PL or pure ε-PL in PBS solution was added into each well of 96-well microplates. 50 μL MHB with 2.5×10^6 cells/mL bacteria was then added into each well. 50 μL MHB with 2.5×10^6 cells/mL bacteria was added to 50 μL PBS to act as untreated control. Carbonyl cyanide 3-chlorophenylhydrazone (CCCP) was added to untreated control at a final concentration of 5 μM to act as fully depolarized control. 3,3′-Diethyloxacarbocyanine Iodide (DiOC2(3)) was added to all wells at a final concentration of […]. […] The untreated (polarized) and CCCP-treated (fully depolarized) controls were used to determine the percentage of depolarized cells. Two independent experiments were done for this test, and two technical replicates were adopted for each independent experiment.

SMILES	generations after which resistance started to develop (rise of MBC) [1] [generations]	generations after which resistance started to develop (rise of MBC) (E. coli ATCC 25922 [2]) [generations]	depolarisation of cell membrane (E. coli ATCC 25922 [3])
NC[C@H]1O[C@H](O[C@H]2[C@H](O)[C@@H](O[C@H]3O[C@H](CO)[C@@H](O)[C@H](N)[C@H]3O)[C@H](N)C[C@@H]2N)[C@H](O)[C@@H](O)[C@@H]1O [kanamycin]	44	52	–
N#CC(C#N)=NNc1cccc(Cl)c1 [CCCP, Carbonyl cyanide 3-chlorophenylhydrazone]	–	–	minimal activity
